Like-named read-outs stand apart in the source and are kept apart here.
Experiments:
[1] = molecular target: T1, TEM-1 (Escherichia coli, UniProt P62593); assay: β-lactamase inhibitory activity, determination of IC50 (nitrocefin hydrolysis); format: biochemical
T1 construct: made in house; host or cells: E. coli

[2] = molecular target: T2, SHV-1 (Klebsiella pneumoniae, UniProt P0AD64); assay: as above; format: biochemical
T2 construct: made in house; host or cells: E. coli

[3] = molecular target: T3, CTX-M-15 (Escherichia coli, UniProt Q9EXV5); assay: as above; format: biochemical
T3 construct: made in house; host or cells: E. coli
T3 sequence (Q9EXV5 entry or part of it): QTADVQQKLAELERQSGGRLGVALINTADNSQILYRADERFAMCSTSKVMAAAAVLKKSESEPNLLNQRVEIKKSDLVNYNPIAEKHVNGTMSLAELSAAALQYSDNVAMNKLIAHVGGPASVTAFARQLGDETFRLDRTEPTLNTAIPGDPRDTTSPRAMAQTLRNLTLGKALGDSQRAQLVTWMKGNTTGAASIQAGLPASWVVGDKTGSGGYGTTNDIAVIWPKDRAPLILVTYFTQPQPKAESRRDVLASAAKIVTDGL

[4] = molecular target: T4, KPC-2 (Klebsiella pneumoniae, UniProt Q9F663); assay: as above; format: biochemical
T4 construct: made in house; host or cells: E. coli
T4 sequence (Q9F663 25-293 limits assumed): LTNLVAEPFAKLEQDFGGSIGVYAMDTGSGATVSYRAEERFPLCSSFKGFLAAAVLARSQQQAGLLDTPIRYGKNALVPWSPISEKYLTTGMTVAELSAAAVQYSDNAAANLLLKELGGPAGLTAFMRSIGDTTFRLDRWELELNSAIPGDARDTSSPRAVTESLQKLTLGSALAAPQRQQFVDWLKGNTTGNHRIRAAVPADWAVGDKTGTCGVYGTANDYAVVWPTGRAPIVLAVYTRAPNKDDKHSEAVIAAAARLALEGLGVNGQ

[5] = molecular target: T5, OXA-1 (Escherichia coli, UniProt P13661); assay: as above; format: biochemical
T5 construct: made in house; host or cells: E. coli
T5 sequence (P13661 26-276): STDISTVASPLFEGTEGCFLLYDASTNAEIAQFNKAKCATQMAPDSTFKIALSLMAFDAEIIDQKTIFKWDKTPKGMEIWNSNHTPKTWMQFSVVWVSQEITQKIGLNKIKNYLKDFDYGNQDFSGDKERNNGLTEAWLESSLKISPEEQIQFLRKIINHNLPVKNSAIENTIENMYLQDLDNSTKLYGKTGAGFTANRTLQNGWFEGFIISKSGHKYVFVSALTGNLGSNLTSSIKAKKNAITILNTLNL

[6] = molecular target: T6, OXA-11 (Pseudomonas aeruginosa, UniProt Q06778); assay: as above; format: biochemical
T6 construct: made in house; host or cells: E. coli
T6 sequence (Q06778 21-266): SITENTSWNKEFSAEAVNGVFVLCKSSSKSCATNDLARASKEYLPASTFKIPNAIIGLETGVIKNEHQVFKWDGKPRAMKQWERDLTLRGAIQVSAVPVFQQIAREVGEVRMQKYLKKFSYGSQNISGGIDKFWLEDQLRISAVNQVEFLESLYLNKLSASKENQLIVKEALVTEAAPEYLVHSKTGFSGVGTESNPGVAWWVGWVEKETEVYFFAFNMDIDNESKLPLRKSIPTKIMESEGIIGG

[7] = molecular target: T7, OXA-15 (Pseudomonas aeruginosa, UniProt Q51574); assay: biochemical
T7 construct: made in house; host or cells: E. coli
T7 sequence (Q51574 22-275): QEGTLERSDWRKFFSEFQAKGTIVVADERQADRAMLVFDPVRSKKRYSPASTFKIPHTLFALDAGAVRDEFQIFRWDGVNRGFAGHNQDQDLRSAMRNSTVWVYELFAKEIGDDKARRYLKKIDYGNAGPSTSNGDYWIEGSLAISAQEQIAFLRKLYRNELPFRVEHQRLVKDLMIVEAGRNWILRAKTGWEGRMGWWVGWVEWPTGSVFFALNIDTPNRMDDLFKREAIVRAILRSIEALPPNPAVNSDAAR

[8] = molecular target: T8, OXA-48 (Klebsiella pneumoniae, UniProt Q6XEC0); assay: β-lactamase inhibitory activity, determination of IC50 (nitrocefin hydrolysis); format: biochemical
T8 construct: made in house; host or cells: E. coli
T8 sequence (Q6XEC0 23-265 limits assumed): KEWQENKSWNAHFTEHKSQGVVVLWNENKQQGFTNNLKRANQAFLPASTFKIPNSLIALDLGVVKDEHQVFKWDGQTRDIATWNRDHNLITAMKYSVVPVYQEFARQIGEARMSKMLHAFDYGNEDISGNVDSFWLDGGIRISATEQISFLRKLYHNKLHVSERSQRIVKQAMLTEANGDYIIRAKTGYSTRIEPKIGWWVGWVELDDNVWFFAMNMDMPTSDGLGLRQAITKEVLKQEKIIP

[9] = test system: E. cloacae 260508 (TEM-1, CTX-M-15); assay: MIC of compounds alone, broth microdilution; format: cell-based; conditions: Enterobacter cloacae, read-out: MIC compounds of the invention alone
In short: (§1)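 Broth microdilution per CLSI M7-A7: compounds alone, in DMSO, challenged with log-phase bacteria at 5×10^5 cfu/mL in cation-adjusted Mueller-Hinton broth. Plates incubated 16-20 h at 35° C in ambient air; MIC is the lowest concentration preventing visible growth.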

[10] = test system: E. cloacae P99 (AmpC); assay: MIC of compounds alone, broth microdilution; format: cell-based; conditions: Enterobacter cloacae, read-out: MIC compounds of the invention alone
In short: as §1

[11] = test system: E. cloacae UFR51 (SHV-12, IMP-8); assay: MIC of compounds alone, broth microdilution; format: cell-based; conditions: Enterobacter cloacae, read-out: MIC compounds of the invention alone
In short: as §1

[12] = test system: E. cloacae UFR70 (TEM-1, CTX-M-15, CMY-2, OXA-1, Porin loss); assay: MIC of compounds alone, broth microdilution; format: cell-based; conditions: Enterobacter cloacae, read-out: MIC compounds of the invention alone
In short: as §1

[13] = test system: E. cloacae UFR85 (TEM-1, CTX-M-15, AmpC); assay: MIC of compounds alone, broth microdilution; format: cell-based; conditions: Enterobacter cloacae, read-out: MIC compounds of the invention alone
In short: as §1

[14] = test system: E. coli 131119 (TEM-1, OXA-48); assay: MIC of compounds alone, broth microdilution; format: cell-based; conditions: Escherichia coli, read-out: MIC compounds of the invention alone
In short: as §1

[15] = test system: E. coli 190317 (TEM-1, SHV-12, CTX-M-15, OXA-1); assay: MIC of compounds alone, broth microdilution; format: cell-based; conditions: Escherichia coli, read-out: MIC compounds of the invention alone
In short: as §1

[16] = test system: E. coli RGN238 (OXA-1); assay: MIC of compounds alone, broth microdilution; format: cell-based; conditions: Escherichia coli, read-out: MIC compounds of the invention alone
In short: as §1

[17] = test system: E. coli UFR18 (CTX-M-15, OXA-204); assay: MIC of compounds alone, broth microdilution; format: cell-based; conditions: Escherichia coli, read-out: MIC compounds of the invention alone
In short: as §1

[18] = test system: E. coli UFR32 (TEM-1, VEB-1, OXA-10); assay: MIC of compounds alone, broth microdilution; format: cell-based; conditions: Escherichia coli, read-out: MIC compounds of the invention alone
In short: as §1

[19] = test system: E. coli UFR41 (TEM-1, CTX-M-15, CMY-2, OXA-1, NDM-4); assay: MIC of compounds alone, broth microdilution; format: cell-based; conditions: Escherichia coli, read-out: MIC compounds of the invention alone
In short: as §1

[20] = test system: E. coli UFR61O (TEM-1, KPC-2); assay: MIC of compounds alone, broth microdilution; format: cell-based; conditions: Escherichia coli, read-out: MIC compounds of the invention alone
In short: as §1

[21] = test system: E. coli UFR74 (SHV-1, DHA-1); assay: MIC of compounds alone, broth microdilution; format: cell-based; conditions: Escherichia coli, read-out: MIC compounds of the invention alone
In short: as §1

[22] = test system: K. oxytoca UFR21 (TEM-1, CTX-M-15, OXA-48); assay: MIC of compounds alone, broth microdilution; format: cell-based; conditions: Klebsiella oxytoca, read-out: MIC compounds of the invention alone
In short: as §1

[23] = test system: K. pneumoniae 160143 (TEM-1, SHV-1, CTX-M-15, KPC-2, OXA-1); assay: MIC of compounds alone, broth microdilution; format: cell-based; conditions: Klebsiella pneumoniae, read-out: MIC compounds of the invention alone
In short: as §1

[24] = test system: K. pneumoniae 200047 (TEM-1, SHV-32, CTX-M-15, OXA-1); assay: MIC of compounds alone, broth microdilution; format: cell-based; conditions: Klebsiella pneumoniae, read-out: MIC compounds of the invention alone
In short: as §1

[25] = test system: K. pneumoniae 6299 (TEM-1, SHV-11, OXA-163); assay: MIC of compounds alone, broth microdilution; format: cell-based; conditions: Klebsiella pneumoniae, read-out: MIC compounds of the invention alone
In short: as §1

[26] = test system: K. pneumoniae BAA-1898 (TEM-1, SHV-11, SHV-12, KPC-2); assay: MIC of compounds alone, broth microdilution; format: cell-based; conditions: Klebsiella pneumoniae
In short: as §1

[27] = test system: K. pneumoniae UFR24 (TEM-1, SHV-2, SHV-11, OXA-1, OXA-48, OXA-47); assay: MIC of compounds alone, broth microdilution; format: cell-based; conditions: Klebsiella pneumoniae, read-out: MIC compounds of the invention alone
In short: as §1

[28] = test system: K. pneumoniae UFR39 (CTX-M-15, NDM-1); assay: MIC of compounds alone, broth microdilution; format: cell-based; conditions: Klebsiella pneumoniae, read-out: MIC compounds of the invention alone
In short: as §1

[29] = test system: K. pneumoniae UFR68 (TEM-1, SHV-11, CTX-M-15, KPC-3); assay: MIC of compounds alone, broth microdilution; format: cell-based; conditions: Klebsiella pneumoniae, read-out: MIC compounds of the invention alone
In short: as §1

[30] = test system: K. pneumoniae UFR77 (CMY-2); assay: MIC of compounds alone, broth microdilution; format: cell-based; conditions: Klebsiella pneumoniae, read-out: MIC compounds of the invention alone
In short: as §1

[31] = test system: P. aeruginosa CIP107051 (TEM-24); assay: MIC of compounds alone, broth microdilution; format: cell-based; conditions: Pseudomonas aeruginosa
In short: as §1

[32] = molecular target: AmpC (P99) (Enterobacter cloacae, UniProt P05364); assay: β-lactamase inhibitory activity, determination of IC50 (nitrocefin hydrolysis)
Chain of AmpC (P99) (P05364 21-381): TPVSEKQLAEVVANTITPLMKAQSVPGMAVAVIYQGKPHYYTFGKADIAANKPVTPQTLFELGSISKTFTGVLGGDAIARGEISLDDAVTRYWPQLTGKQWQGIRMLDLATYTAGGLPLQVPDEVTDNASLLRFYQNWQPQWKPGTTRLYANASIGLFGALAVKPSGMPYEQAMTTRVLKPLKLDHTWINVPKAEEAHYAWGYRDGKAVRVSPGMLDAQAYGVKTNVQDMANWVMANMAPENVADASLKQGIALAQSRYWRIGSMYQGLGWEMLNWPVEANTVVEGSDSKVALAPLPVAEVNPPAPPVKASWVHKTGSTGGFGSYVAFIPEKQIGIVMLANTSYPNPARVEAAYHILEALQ

[33] = molecular target: AmpC P. aeruginosa (Pseudomonas aeruginosa, UniProt P24735); assay: as above
Chain of AmpC P. aeruginosa (P24735 27-397): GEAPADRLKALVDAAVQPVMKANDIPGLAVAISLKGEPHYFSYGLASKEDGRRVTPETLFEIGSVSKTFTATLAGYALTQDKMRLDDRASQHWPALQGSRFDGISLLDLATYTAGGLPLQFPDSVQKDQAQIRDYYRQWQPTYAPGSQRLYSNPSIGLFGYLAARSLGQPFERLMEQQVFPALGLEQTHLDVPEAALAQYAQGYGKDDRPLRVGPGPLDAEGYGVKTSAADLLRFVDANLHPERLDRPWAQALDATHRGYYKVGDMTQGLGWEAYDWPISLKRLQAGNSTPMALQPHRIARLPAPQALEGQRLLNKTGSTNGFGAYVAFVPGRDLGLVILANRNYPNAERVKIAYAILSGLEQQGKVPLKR

[34] = test system: E. cloacae UFR51 (SHV-12, IMP-8); assay: MIC of ceftazidime (CAZ) in combination with compounds at 4 μg/mL, broth microdilution; format: cell-based; conditions: strain UFR51; MIC of CAZ with compound fixed at 4 μg/mL
Protocol: (§2) Method 2: MIC of Compounds and Synergy with Ceftazidime Against Bacterial Isolates (Table 2 and 3)
(§3) Compounds of the present invention were assessed against genotyped bacterial strains alone or in combination with the β-lactam ceftazidime (CAZ). In the assays, MICs of said compounds, or of ceftazidime at fixed concentrations of said compounds were determined by the broth microdilution method according to the Clinical Laboratory Standards Institute (CLSI-M7-A7). Briefly, compounds alone according to the invention were prepared in DMSO and spotted (2 μL each) on sterile polystyrene plates (Corning, 3788). Compounds and ceftazidime dilutions were prepared in DMSO and spotted (1 μL each) on sterile polystyrene plates (Corning, 3788). Log phase bacterial suspensions were adjusted to a final density of 5×10^5 cfu/mL in cation-adjusted Mueller-Hinton broth (Becton-Dickinson) and added to each well (98 μL). Microplates were incubated for 16-20 h at 35° C. in ambient air. The MIC of the compounds was defined as the lowest concentration of said compounds that prevented bacterial growth as read by visual inspection. The MIC of ceftazidime at each compound concentration was defined as the lowest concentration of ceftazidime that prevented bacterial growth as read by visual inspection.

[35] = test system: E. coli UFR41 (TEM-1, CTX-M-15, CMY-2, OXA-1, NDM-4); assay: as above; format: cell-based; conditions: strain UFR41; MIC of CAZ with compound fixed at 4 μg/mL
Protocol: as §2, §3

T2 sequence (P0AD64 22-286): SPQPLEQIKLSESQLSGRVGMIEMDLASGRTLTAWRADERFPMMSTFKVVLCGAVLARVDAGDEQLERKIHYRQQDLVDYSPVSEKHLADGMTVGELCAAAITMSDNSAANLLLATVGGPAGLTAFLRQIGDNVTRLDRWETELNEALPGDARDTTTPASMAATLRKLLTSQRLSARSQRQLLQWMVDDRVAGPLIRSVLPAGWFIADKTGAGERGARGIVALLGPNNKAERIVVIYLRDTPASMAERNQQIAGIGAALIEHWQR
T1 sequence (P62593 24-286 limits assumed): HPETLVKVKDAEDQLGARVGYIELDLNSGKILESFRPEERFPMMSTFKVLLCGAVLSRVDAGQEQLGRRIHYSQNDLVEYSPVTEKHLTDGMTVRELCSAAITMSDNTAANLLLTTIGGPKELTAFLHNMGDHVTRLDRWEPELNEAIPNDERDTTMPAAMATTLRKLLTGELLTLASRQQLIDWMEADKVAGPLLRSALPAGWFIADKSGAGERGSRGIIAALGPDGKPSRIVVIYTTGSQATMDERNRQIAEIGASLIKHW

O=C1N2CC=C(c3cnoc3)C(C2)N1OC(F)(F)C(=O)[O-].[Li+] (centres unmarked) [Example 6, Lithium difluoro-(4-isoxazol-4-yl-7-oxo-1,6-diaza-bicyclo[3.2.1]oct-3-en-6-yloxy)-acetate]
IC50 [1]: 7.3 nM
IC50 [2]: 18 nM
IC50 [3]: 1.7 nM
IC50 [4]: 460 nM
IC50 [5]: 1700 nM
IC50 [6]: 180 nM
IC50 [7]: 28 nM
IC50 [8]: 3.7 nM
MIC [9]: 4 µg/mL
MIC [10]: 4 µg/mL
MIC [11]: 2 µg/mL
MIC [12]: 16 µg/mL
MIC [13]: > 32 µg/mL
MIC [14]: 4 µg/mL
MIC [15]: 2 µg/mL
MIC [16]: 16 µg/mL
MIC [17]: 2 µg/mL
MIC [18]: 2 µg/mL
MIC [19]: > 32 µg/mL
MIC [20]: 8 µg/mL
MIC [21]: > 32 µg/mL
MIC [22]: > 32 µg/mL
MIC [23]: > 32 µg/mL
MIC [24]: 32 µg/mL
MIC [25]: > 32 µg/mL
MIC ([26]; BAA1898, read-out: MIC compounds of the invention alone): > 32 µg/mL
MIC [27]: > 32 µg/mL
MIC [28]: 4 µg/mL
MIC [29]: > 32 µg/mL
MIC [30]: > 32 µg/mL
MIC ([31]; CIP107051, read-out: MIC compounds of the invention alone): > 32 µg/mL
IC50 [32]: 1800 nM
IC50 [33]: 4200 nM

O=C1N2CC(c3cccnc3)=CC(C2)N1OS(=O)(=O)[O-].[Na+] (centres unmarked) [Example 41, Sodium [3-(3-pyridyl)-7-oxo-1,6-diazabicyclo[3.2.1]oct-3-en-6-yl]sulfate]
IC50 [1]: 1.8 nM
IC50 [2]: 3.6 nM
IC50 ([3]; class (A), nitrocefin 200 μM, 30 min pre-incubation, read-out: IC50 β-lactamase CTX-M-15): 2.6 nM
IC50 ([4]; class (A), nitrocefin 200 μM, 30 min pre-incubation, read-out: IC50 β-lactamase KPC-2): 9 nM
IC50 ([5]; class (D), nitrocefin 200 μM, 30 min pre-incubation, read-out: IC50 β-lactamase OXA-1): 1400 nM
IC50 [6]: 840 nM
IC50 [7]: 150 nM
IC50 ([8]; class (D), nitrocefin 200 μM, 30 min pre-incubation, read-out: IC50 β-lactamase OXA-48): 1.4 nM
MIC [9]: 16 µg/mL
MIC ([10]; strain P99 (E. cloacae)): 8 µg/mL
MIC ([11]; strain UFR51 (E. cloacae)): 4 µg/mL
MIC [13]: 16 µg/mL
MIC ([14]; strain 131119 (E. coli)): 4 µg/mL
MIC ([16]; strain RGN238 (E. coli)): 32 µg/mL
MIC ([17]; strain UFR18 (E. coli)): 4 µg/mL
MIC ([18]; strain UFR32 (E. coli)): 8 µg/mL
MIC ([20]; strain UFR61O (E. coli)): 16 µg/mL
MIC ([21]; strain UFR74 (E. coli)): 16 µg/mL
MIC [22]: 16 µg/mL
MIC ([25]; strain 6299 (K. pneumoniae)): 16 µg/mL
MIC ([26]; BAA1898, strain BAA-1898 (K. pneumoniae), read-out: MIC compounds of the invention alone): 8 µg/mL
MIC ([27]; strain UFR24 (K. pneumoniae)): 16 µg/mL
MIC ([28]; strain UFR39 (K. pneumoniae)): 4 µg/mL
MIC ([30]; strain UFR77 (K. pneumoniae)): 8 µg/mL
MIC ([31]; strain CIP107051 (P. aeruginosa), read-out: MIC compounds of the invention alone): > 32 µg/mL
MIC combination of CAZ and compounds of the invention at 4 μg/mL [34]: <0.25 µg/mL
MIC combination of CAZ and compounds of the invention at 4 μg/mL [35]: <0.25 µg/mL
IC50 [32]: 40 nM
IC50 [33]: 190 nM

— US10183943B2, “Heterocyclic compounds and their use in preventing or treating bacterial infections” (MUTABILIS, priority 2015, dated 2019)
